Like-named read-outs stand apart in the source and are kept apart here.
What was measured:
[1] = tested on: Human liver cancer cell line HepG2 cells; assay: Cellular viability, WST-8 assay, without or with human liver microsomes; type: cell-based; conditions: for Cellular viability (%) (+) microsome: HepG2, with human liver microsomes; for Cellular viability (%) (−) microsome: HepG2, without human liver microsomes
Procedure: Human liver cancer cell line HepG2 cells were cultured in a medium (high glucose Dulbecco's Modified Eagle Medium, DMEM, HyClone) supplemented with 10% fetal bovine serum (FBS, HyClone) and 1% antibiotic in a thermostat maintained at 37° C. with 5% CO2.
HepG2 cells, which are adherent cells, were […] or presence of human liver microsomes (Gibco) and NADPH regenerating system.
Cell cultures were exchanged using […] of medium (high glucose Dulbecco's Modified Eagle Medium, DMEM, HyClone) and incubated for 24 hours.
After adding 10 μL of WST-8 (abCam), the absorbance was obtained at 460 nm after 5 seconds of orbital shaking with a microplate reader (Tecan, Spark©) 2 hours later.
The mean of the three values obtained in triplicate was calculated and expressed as % cellular viability compared to vehicle treatment.

IL33 and ST2 binding = target: T1, IL33 and ST2 binding (Homo sapiens, UniProt O95760);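 also: plate ELISA with coated Flag-tagged human IL-33 and His-tagged human ST2, bound ST2 detected by anti-His HRP and TMB absorbance at 450 nm, 2 h compound incubation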
T1 sequence (O95760 112-270 limits assumed): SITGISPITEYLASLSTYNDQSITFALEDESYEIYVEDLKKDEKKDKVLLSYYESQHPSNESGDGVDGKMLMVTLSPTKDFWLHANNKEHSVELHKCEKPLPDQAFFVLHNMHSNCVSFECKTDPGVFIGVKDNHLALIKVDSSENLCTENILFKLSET

[2] = tested on: IL-6 secretion in the human mast cell line HMC 1.1; assay: IL-6 production inhibition assay (IL-33 stimulated HMC 1.1 cells, IL-6 ELISA); type: cell-based; conditions: for inhibition at 1 µM: 1 μM compound, read-out: Inhibition of hIL-6 production (%) 1 μM; for inhibition at 10 µM: 10 μM compound, read-out: Inhibition of hIL-6 production (%) 10 μM
Procedure: Human mast cell line HMC 1.1 cells were cultured in medium (Iscove's Modified Dulbecco's Medium, IMDM, HyClone) supplemented with […] fetal bovine serum (FBS, HyClone) and 1% antibiotics and maintained at 37° C. with 5% CO2.
HMC 1.1 cells, which are non-adherent cells, were cultured in 0.5 mL of culture medium containing 200 nM of IL-33 wild type human recombinant protein after centrifugation of cells in culture flasks filled to […] capacity and incubated for 24 hours with […], 10 μM, 25 μM, 30 μM or 50 μM of Example compound.
Medium was harvested by centrifugation (2,000×g, 5 min) and stored at −80° C. until ELISA assay.
Experiments were performed according to the protocol using the Human IL-6 ELISA kit (abCam).
The average of the three values obtained in triplicate was calculated and the amount of IL-6 secretion was measured using a standard curve. The measured IL-6 secretion was converted to 100% based on the vehicle treatment sample value to obtain the vehicle %.

| Compound | inhibition (IL33 and ST2 binding; 30 µM) [%] | inhibition (IL33 and ST2 binding; 100 µM) [%] | inhibition at 1 µM ([2]; 24 hours) [%] | inhibition at 10 µM ([2]; 24 hours) [%] | other results |
| --- | --- | --- | --- | --- | --- |
| CCOC(=O)c1nc(-c2ccc(C(F)(F)F)cc2)oc1-c1ccccc1N [Compound 99, Ethyl 5-(2-aminophenyl)-2-(4-(trifluoromethyl)phenyl)oxazole-4-carboxylate] |  |  |  |  | Cellular viability (%) (+) microsome ([1]; at 25 μM): 96 at %; Cellular viability (%) (−) microsome ([1]; at 25 μM): 79 at % |
| CN(C)CCNC(=O)c1nc(-c2ccc(OC(F)(F)F)cc2)oc1-c1ccccc1 [Compound 203, N-(2-(Dimethylamino)ethyl)-5-phenyl-2-(4-(trifluoromethoxy)phenyl)oxazole-4-carboxamide] | -9 | 14 |  |  | Cellular viability (%) (+) microsome ([1]; at 50 μM): 30 at %; Cellular viability (%) (−) microsome ([1]; at 50 μM): 19 at % |
| CN(C)CCNC(=O)c1nc(-c2ccc(F)c(F)c2)oc1-c1ccccc1 [Compound 231, 2-(3,4-Difluorophenyl)-N-(2-(dimethylamino)ethyl)-5-phenyloxazole-4-carboxamide] | -8 | 5 |  |  | Cellular viability (%) (+) microsome ([1]; at 50 μM): 29 at %; Cellular viability (%) (−) microsome ([1]; at 50 μM): 17 at % |
| CCNC(=O)c1nc(-c2ccc(C(F)(F)F)cc2)oc1-c1cc(O)cc(O)c1 [Compound 322, 5-(3,5-Dihydroxyphenyl)-N-ethyl-2-(4-(trifluoromethyl)phenyl)oxazole-4-carboxamide] |  |  | 86 | 73 | Cellular viability (%) (+) microsome ([1]; at 160 μM): 90 at %; Cellular viability (%) (−) microsome ([1]; at 160 μM): 63 at % |
| O=C(NCCCn1ccnc1)c1nc(-c2ccc(C(F)(F)F)cc2)oc1-c1ccccc1[N+](=O)[O-] [Compound 158, N-(3-(1H-Imidazol-1-yl)propyl)-5-(2-nitrophenyl)-2-(4-(trifluoromethyl)phenyl)oxazole-4-carboxamide] | 31 | 26 |  |  | Cellular viability (%) (+) microsome ([1]; at 50 μM): 17 at %; Cellular viability (%) (−) microsome ([1]; at 50 μM): 17 at % |
| CCOC(=O)c1nc(-c2ccc(C(F)(F)F)cc2)oc1-c1ccc(OC)c(OC)c1 [Compound 47, Ethyl 5-(3,4-dimethoxyphenyl)-2-(4-(trifluoromethyl)phenyl)oxazole-4-carboxylate] | -57 |  | 36 | 26 |  |
| CCNC(=O)c1nc(-c2ccc(C(F)(F)F)cc2)oc1-c1cc(O)c(O)c(O)c1 [Compound 323, N-Ethyl-2-(4-(trifluoromethyl)phenyl)-5-(3,4,5-trihydroxyphenyl)oxazole-4-carboxamide] |  |  | 45 | 84 | Cellular viability (%) (+) microsome ([1]; at 160 μM): 77 at %; Cellular viability (%) (−) microsome ([1]; at 160 μM): 63 at % |
| CC(=O)NCCNC(=O)c1nc(-c2ccc(C(F)(F)F)cc2)oc1-c1ccccc1[N+](=O)[O-] [Compound 285, N-(2-acetamidoethyl)-5-(2-nitrophenyl)-2-(4-(trifluoromethyl)phenyl)oxazole-4-carboxamide] | 73 | 72 |  |  | Cellular viability (%) (+) microsome ([1]; at 30 μM): 59 at %; Cellular viability (%) (−) microsome ([1]; at 30 μM): 54 at % |
| CCCNC(=O)c1nc(-c2ccc(SC)cc2)oc1-c1ccccc1 [Compound 317, 2-(4-(Methylthio)phenyl)-5-phenyl-N-propyloxazole-4-carboxamide] |  |  | 44 | 43 | Cellular viability (%) (+) microsome ([1]; at 160 μM): 89 at %; Cellular viability (%) (−) microsome ([1]; at 160 μM): 47 at % |
| CCOC(=O)c1nc(-c2cc(F)cc(F)c2)oc1-c1ccccc1[N+](=O)[O-] [Compound 74, Ethyl 2-(3,5-difluorophenyl)-5-(2-nitrophenyl)oxazole-4-carboxylate] |  |  |  |  | Cellular viability (%) (+) microsome ([1]; at 45 μM): 96 at %; Cellular viability (%) (−) microsome ([1]; at 45 μM): 101 at % |
| CCNC(=O)c1nc(-c2cc(F)cc(F)c2)oc1-c1ccccc1 [Compound 313, 2-(3,5-Difluorophenyl)-N-ethyl-5-phenyloxazole-4-carboxamide] | -29 |  | -7 | 27 |  |
| COc1ccc(-c2nc(C(=O)NCCN(C)C)c(-c3ccc([N+](=O)[O-])cc3)o2)cc1 [Compound 217, N-(2-(Dimethylamino)ethyl)-2-(4-methoxyphenyl)-5-(4-nitrophenyl)oxazole-4-carboxamide] | -38 | -51 |  |  | Cellular viability (%) (+) microsome ([1]; at 100 μM): 34 at %; Cellular viability (%) (−) microsome ([1]; at 100 μM): 19 at % |
| CCOC(=O)c1nc(-c2ccc(C(F)(F)F)cc2)oc1-c1ccccc1[N+](=O)[O-] [Compound 32, Ethyl 5-(2-nitrophenyl)-2-(4-(trifluoromethyl)phenyl)oxazole-4-carboxylate] | 107 | 108 |  |  | Cellular viability (%) (+) microsome ([1]; at 25 μM): 95 at %; Cellular viability (%) (−) microsome ([1]; at 25 μM): 81 at % |
| CN(C)CCN1CCN(C(=O)c2nc(-c3ccc(Cl)cc3)oc2-c2ccccc2[N+](=O)[O-])CC1 [Compound 248, (2-(4-Chlorophenyl)-5-(2-nitrophenyl)oxazol-4-yl)(4-(2-(dimethylamino)ethyl)piperazin-1-yl)methanone] | 33 | 63 |  |  | Cellular viability (%) (+) microsome ([1]; at 50 μM): 31 at %; Cellular viability (%) (−) microsome ([1]; at 50 μM): 19 at % |
| CC(=O)N1CCN(CCNC(=O)c2nc(-c3ccccc3C(F)(F)F)oc2-c2ccccc2)CC1 [Compound 128, N-(2-(4-acetylpiperazin-1-yl)ethyl)-5-phenyl-2-(2-(trifluoromethyl)phenyl)oxazole-4-carboxamide] | -28 |  | 66 | 80 |  |
| CCNC(=O)c1nc(-c2ccc(C(F)(F)F)cc2)oc1-c1ccccc1OC(F)(F)F [Compound 305, N-Ethyl-5-(2-(trifluoromethoxy)phenyl)-2-(4-(trifluoromethyl)phenyl)oxazole-4-carboxamide] | -17 |  | -4 | 26 |  |
| CCNC(=O)c1nc(-c2ccc(C#N)cc2)oc1-c1ccccc1 [Compound 315, 2-(4-cyanophenyl)-N-ethyl-5-phenyloxazole-4-carboxamide] | -4 |  | 47 | 61 |  |
| CCNC(=O)c1nc(-c2ccc(C(F)(F)F)cc2)oc1-c1cccc(OC)c1 [Compound 298, N-Ethyl-5-(3-methoxyphenyl)-2-(4-(trifluoromethyl)phenyl)oxazole-4-carboxamide] | 87 |  | 70 | 75 | inhibition at 0.1 µM ([2]; 0.1 μM compound, 24 hours, read-out: Inhibition of hIL-6 production (%) 0.1 μM): 12%; EC50 ([2]; read-out: Inhibition of hIL-6 production EC50): 640 nM |
| CCOC(=O)c1coc(-c2ccc(C(F)(F)F)cc2)n1 [Compound 6, Ethyl 2-(4-(trifluoromethyl)phenyl)oxazole-4-carboxylate] |  | 110 |  |  | Cellular viability (%) (+) microsome ([1]; at 45 μM): 99 at %; Cellular viability (%) (−) microsome ([1]; at 45 μM): 66 at % |
| CN1CCN(CCNC(=O)c2nc(-c3ccc(C(F)(F)F)cc3)oc2-c2ccccc2[N+](=O)[O-])CC1 [Compound 153, N-(2-(4-Methylpiperazin-1-yl)ethyl)-5-(2-nitrophenyl)-2-(4-(trifluoromethyl)phenyl)oxazole-4-carboxamide] | 92 | 95 |  |  | Cellular viability (%) (+) microsome ([1]; at 50 μM): 36 at %; Cellular viability (%) (−) microsome ([1]; at 50 μM): 19 at % |
| CCNC(=O)c1nc(-c2ccc(OC)cc2)oc1-c1ccccc1 [Compound 312, N-Ethyl-2-(4-methoxyphenyl)-5-phenyloxazole-4-carboxamide] | -47 |  | 66 | 81 |  |
| CCOC(=O)c1nc(-c2ccc(C(F)(F)F)cc2)oc1-c1cc(OC)cc(OC)c1 [Compound 48, Ethyl 5-(3,5-dimethoxyphenyl)-2-(4-(trifluoromethyl)phenyl)oxazole-4-carboxylate] | 87 |  | 22 | 39 |  |
| CCNC(=O)c1nc(-c2ccc(C(F)(F)F)cc2)oc1-c1cccc(C#N)c1 [Compound 311, 5-(3-Cyanophenyl)-N-ethyl-2-(4-(Trifluoromethyl)phenyl)oxazole-4-carboxamide] | -5 |  | 64 | 80 |  |
